Patent US11180461B2, “Triazoles as Kv3 inhibitors” (AUTIFONY THERAPEUTICS LIMITED, priority 2012, dated 2021)

Columns and labels:
[1] = biological target: T1, human Kv3.1 channels (hKv3.1) (Homo sapiens, UniProt P48547); assay: hKv3.1 recombinant cell assay, IonWorks Quattro planar array electrophysiology; type: cell-based; conditions: comparable = activity for one channel less than 2 fold that for the other
T1 construct: expressed in transfected cells; host or cells: CHO/Gam/E1A-clone22 (CGE22) cells, transduced with BacMam pFBM/human Kv3.1
T1 sequence (P48547 1-511): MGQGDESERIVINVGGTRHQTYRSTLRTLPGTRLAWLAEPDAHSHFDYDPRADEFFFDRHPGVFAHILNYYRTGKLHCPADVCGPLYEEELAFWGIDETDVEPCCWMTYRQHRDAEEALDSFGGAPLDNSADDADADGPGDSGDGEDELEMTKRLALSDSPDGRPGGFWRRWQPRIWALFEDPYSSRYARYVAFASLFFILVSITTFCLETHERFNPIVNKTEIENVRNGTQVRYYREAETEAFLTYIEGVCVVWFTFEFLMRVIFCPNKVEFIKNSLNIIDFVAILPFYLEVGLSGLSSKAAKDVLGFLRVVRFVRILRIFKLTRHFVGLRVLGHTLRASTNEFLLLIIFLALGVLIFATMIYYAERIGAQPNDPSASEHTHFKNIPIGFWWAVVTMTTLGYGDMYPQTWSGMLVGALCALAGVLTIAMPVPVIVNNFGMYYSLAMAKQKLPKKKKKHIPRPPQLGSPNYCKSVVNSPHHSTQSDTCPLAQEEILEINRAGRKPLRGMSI
From the text: The ability of the compounds of the invention to modulate the voltage-gated potassium channel subtypes Kv3.2/3.1 may be determined using the following assay. The assay may also be used to determine the ability of compounds of the invention to modulate the voltage-gated potassium channel Kv3.3. Analogous methods may be used to investigate the ability of the compounds of the invention to modulate other channel subtypes.
To assess compound effects on human Kv3.1 channels (hKv3.1), CHO/Gam/E1A-clone22 alias CGE22 cells were transduced using a hKv3.1 BacMam reagent. This cell line was designed to be an improved CHO-K1-based host for enhanced recombinant protein expression as compared to wild type CHO-K1. The cell line was generated following the transduction of CHO-K1 cells with a BacMam virus expressing the Adenovirus-Gam1 protein and selection with Geneticin-G418, to generate a stable cell line, CHO/Gam-A3. CHO/Gam-A3 cells were transfected with pCDNA3-E1A-Hygro, followed by hygromycin-B selection and FACS sorting to obtain single-cell clones. […]
Experiments were conducted at room temperature using IonWorks Quattro™ planar array electrophysiology technology (Molecular Devices Corp.) with PatchPlate™ PPC. […] Planar electrode hole resistances (Rp) were determined by applying a 10 mV voltage step across each well. […]

[2] = Determination of in vivo pharmacokinetic parameters (blood and brain) in rats, with and without Elacridar; conditions: rat, oral 1 mg/kg
Procedure: Adult male rats (Charles River, Italy) were dosed with test compound orally at 1 mg/kg (5 ml/kg, in 5% v/v DMSO, 0.5% w/v HPMC in water) and intravenously at 0.5 mg/kg (2 ml/kg, in 5% v/v DMSO 40% w/v PEG400 in saline). After oral administration, blood samples were collected under deep Isofluorane anesthesia from the portal vein and heart of each rat (1 rat per time point). After intravenous administration, serial blood samples were collected from the lateral tail vein of each rat. A further group of rats (n=1 per test compound) received a single intravenous administration of the PgP transport inhibitor, Elacridar (3 mg/kg) shortly before the oral administration of the test compound at 1 mg/kg, as above. Blood and brain samples were collected at a single timepoint of 0.5 h after dose administration for these animals. In all cases, blood samples were collected into potassium EDTA tubes.
Blood and brain samples were assayed for test compound concentration using a method based on protein precipitation with acetonitrile followed by HPLC/MS-MS analysis with an optimized analytical method.
The concentrations of test compound in blood (expressed as ng/ml) and brain (expressed as ng/g) at the different time points following either oral or intravenous dosing were analysed using a non-compartmental pharmacokinetic model using WinNonLin Professional version 4.1. The following parameters were drived:
Intravenous dosing: Maximum concentration over time (Cmax), integrated concentration over time (AUC), clearance (Clb), volume of distribution (Vss) and half-life (t1/2).
Oral dosing: Cmax, time of maximum concentration (Tmax), AUC, bioavailability (F %), fraction absorbed (Fa %), blood to brain ratio (AUC BB), and Fold-change in AUC BB in the presence of Elacridar.

SMILES: Cc1ccc(Oc2ccc(-n3c(C)n[nH]c3=O)cn2)c2c1OCC21CC1 [Example 14, 5-methyl-4-{6-[(7-methylspiro[1-benzofuran-3,1′-cyclopropan]-4-yl)oxy]pyridin-3-yl}-2,4-dihydro-3H-1,2,4-triazol-3-one]
- activity between modulation of Kv3.1 and Kv3.2 channels [1]: comparable activity between modulation of Kv3.1 and Kv3.2 channels
- AUC BB relative to Reference Example 87 and Reference Example 88 of WO2011069951A1 ([2]; AUC BB from blood and brain): at least two fold
- change in AUC BB in the presence of Elacridar ([2]; Elacridar 3 mg/kg i.v., blood and brain at 0.5 h, p-glycoprotein interaction): limited change
